In patent publication US10208019B2, “GLP-1 receptor agonists and uses thereof” (Pfizer Inc., priority 2016, dated 2019):
Structures can show the parent of a compound that is named as a salt. Where two headings read alike, the source gives them in different places.

Columns and labels:
[1] = target: human GLP-1R (Homo sapiens (Human), UniProt P43220, L260F); assay: CHO GLP-1R Clone C6—Assay 2: HTRF cAMP cell-based functional agonist assay (low GLP-1R density); settings: for EC50: CHO GLP-1R Clone C6, cAMP HTRF, geometric mean; for Emax: read-out: Assay 2 Emax (%)
[2] = target: human GLP-1R (Homo sapiens, UniProt P43220, G168S); assay: CHO GLP-1R Clone H6—Assay 1: HTRF cAMP cell-based functional agonist assay (high GLP-1R density); settings: for EC50: CHO GLP-1R Clone H6, cAMP HTRF, geometric mean; for Emax: read-out: Assay 1 Emax (%), CHO GLP-1R Clone H6
Description: GLP-1R-mediated agonist activity was determined with a cell-based functional assay utilizing an HTRF (Homogeneous Time-Resolved Fluorescence) cAMP detection kit (cAMP HI Range Assay Kit; CisBio cat #62AM6PEJ) that measures cAMP levels in the cell. The method is a competitive immunoassay between native cAMP produced by the cells and exogenous cAMP labeled with the dye d2. The tracer binding is visualized by a mAb anti-cAMP labeled with Cryptate. The specific signal (i.e. energy transfer) is inversely proportional to the concentration of cAMP in either standard or experimental sample.
The human GLP-1R coding sequence (NCBI Reference Sequence NP_002053.3, including naturally-occurring variant Gly168Ser) was subcloned into pcDNA3 (Invitrogen) and a cell line stably expressing the receptor was isolated (designated Clone H6).
Cells were removed from cryopreservation, re-suspended in 40 mL of Dulbecco's Phosphate Buffered Saline (DPBS-Lonza Cat #17-512Q) and centrifuged at 800×g for 5 min at 22° C. The cell pellet was then re-suspended in 10 mL of growth medium [DMEM/F12 1:1 Mixture with HEPES, L-Gln, 500 mL (DMEM/F12 Lonza Cat #12-719F), 10% heat inactivated fetal bovine serum (Gibco Cat #16140-071), 5 mL of 100× Pen-Strep (Gibco Cat #15140-122), 5 mL of 100× L-Glutamine (Gibco Cat #25030-081) and 500 μg/mL Geneticin (G418) (Invitrogen #10131035)]. A 1 mL sample of the cell suspension in growth media was counted on a Becton Dickinson ViCell to determine cell viability and cell count per mL. The remaining cell suspension was then adjusted with growth media to deliver 2000 viable cells per well using a Matrix Combi Multidrop reagent dispenser, and the cells were dispensed into a white 384 well tissue culture treated assay plate (Corning 3570). The assay plate was then incubated for 48 hours at 37° C. in a humidified environment in 5% carbon dioxide.
Varying concentrations of each compound to be tested (in DMSO) were diluted in assay buffer (HBSS with Calcium/Magnesium (Lonza/BioWhittaker cat #10-527F)/0.1% BSA (Sigma Aldrich cat #A7409-1L)/20 mM HEPES (Lonza/BioWhiftaker cat #17-737E) containing 100 μM 3-isobutyl-1-methylxanthin (IBMX; Sigma cat #15879). The final DMSO concentration is 1%.
After 48 hours, the growth media was removed from the assay plate wells, and the cells were treated with 20 μL of the serially diluted compound in assay buffer for 30 minutes at 37° C. in a humidified environment in 5% carbon dioxide. Following the 30 minute incubation, 10 μL of labeled d2 cAMP and 10 μL of anti-cAMP antibody (both diluted 1:20 in cell lysis buffer; as described in the manufacturer's assay protocol) were added to each well of the assay plate. The plates were then incubated at room temperature and after 60 minutes, changes in the HTRF signal were read with an Envision 2104 multi-label plate reader using excitation of 330 nm and emissions of 615 and 665 nm. Raw data were converted to nM cAMP by interpolation from a cAMP standard curve (as described in the manufacturer's assay protocol) and the percent effect was determined relative to a saturating concentration of the full agonist GLP-17-36 (1 μM) included on each plate. EC50 determinations were made from agonist dose-response curves analyzed with a curve fitting program using a 4-parameter logistic dose response equation.

[3] = CHO GLP-1R Clone C6, relative to saturating concentration of full agonist GLP-1 (1 μM), arithmetic mean
[4] = relative to saturating concentration of full agonist GLP-1 (1 μM), arithmetic mean

Chain of human GLP-1R (Homo sapiens (Human), UniProt P43220, L260F) (P43220 24-463 L260F): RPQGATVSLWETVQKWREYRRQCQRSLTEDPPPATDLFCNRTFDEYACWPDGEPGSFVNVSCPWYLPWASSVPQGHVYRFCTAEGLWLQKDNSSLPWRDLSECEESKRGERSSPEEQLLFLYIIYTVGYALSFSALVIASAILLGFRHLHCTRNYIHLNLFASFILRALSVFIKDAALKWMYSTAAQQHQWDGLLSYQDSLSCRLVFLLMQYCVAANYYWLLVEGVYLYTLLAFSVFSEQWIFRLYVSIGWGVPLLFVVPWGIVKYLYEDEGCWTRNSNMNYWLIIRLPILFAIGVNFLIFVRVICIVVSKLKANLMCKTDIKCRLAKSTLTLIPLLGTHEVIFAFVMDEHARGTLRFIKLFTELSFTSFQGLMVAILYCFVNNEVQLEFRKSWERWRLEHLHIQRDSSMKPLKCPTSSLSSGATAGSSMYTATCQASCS
Chain of human GLP-1R (Homo sapiens, UniProt P43220, G168S) (P43220 24-463 G168S limits assumed): as the sequence (P43220 24-463 L260F) above, with G145S, F237L counted along it

C[C@H]1CN(c2ccc(F)c(OCc3ccc(F)cc3F)n2)CCN1Cc1nc2ccc(C(=O)O)cc2n1C[C@@H]1CCO1 [Example 10A-56, 2-{[(2S)-4-{6-[(2,4-difluorobenzyl)oxy]-5-fluoropyridin-2-yl}-2-methylpiperazin-1-yl]methyl}-1-[(2S)-oxetan-2-ylmethyl]-1H-benzimidazole-6-carboxylic acid]
EC50 [1]: 16 nM
Emax [1, 3]: 86%
EC50 ([2]; read-out: Assay 1 EC50): 0.5 nM
Emax [2, 4]: 78%

COCCn1c(CN2CCC(c3cccc(OCc4ccc(Cl)cc4F)n3)CC2)nc2ncc(C(=O)O)cc21 [Example 2A-02, 2-((4-(6-((4-Chloro-2-fluorobenzyl)oxy)pyridin-2-yl)piperidin-1-yl)methyl)-1-(2-methoxyethyl)-1H-imidazo[4,5-b]pyridine-6-carboxylic acid hydrochloride]
EC50 [1]: 110 nM
Emax [1, 3]: 89%
EC50 ([2]; read-out: Assay 1 EC50): 7.9 nM
Emax [2, 4]: 95%

O=C(O)c1ccc2nc(CN3CCC(c4cccc(OCc5ccc(Cl)cc5F)n4)CC3)n(Cc3ccon3)c2c1 [Example 11A-69, 2-[(4-{6-[(4-chloro-2-fluorobenzyl)oxy]pyridin-2-yl}piperidin-1-yl)methyl]-1-(1,2-oxazol-3-ylmethyl)-1H-benzimidazole-6-carboxylic acid]
EC50 [1]: 21 nM
Emax [1, 3]: 84%
EC50 ([2]; read-out: Assay 1 EC50): 5.3 nM
Emax [2, 4]: 76%

N#Cc1ccc(COc2cccc(C3CCN(Cc4nc5ccc(C(=O)O)nc5n4Cc4ncco4)CC3)n2)c(F)c1 [Example 2A-19, 2-[(4-{6-[(4-cyano-2-fluorobenzyl)oxy]pyridin-2-yl}piperidin-1-yl)methyl]-3-(1,3-oxazol-2-ylmethyl)-3H-imidazo[4,5-b]pyridine-5-carboxylic acid]
EC50 [1]: 150 nM
Emax [1, 3]: 100%
EC50 ([2]; read-out: Assay 1 EC50): 7.9 nM
Emax [2, 4]: 80%

N#Cc1ccc(COc2cccc(N3CCN(Cc4nc5ccc(C(=O)O)cc5n4Cc4ncco4)CC3)n2)c(F)c1 [Example 10A-34, 2-[(4-{6-[(4-cyano-2-fluorobenzyl)oxy]pyridin-2-yl}piperazin-1-yl)methyl]-1-(1,3-oxazol-2-ylmethyl)-1H-benzimidazole-6-carboxylic acid]
EC50 [1]: 29 nM
Emax [1, 3]: 95%
EC50 ([2]; read-out: Assay 1 EC50): 1.5 nM
Emax [2, 4]: 80%

COCCn1c(CN2CCC(c3cccc(OCc4ccc(Cl)cc4F)n3)CC2C)nc2ccc(C(=O)O)cc21 (single isomer, unassigned) [Example 13A-04, cis 2-{[4-{6-[(4-Chloro-2-fluorobenzyl)oxy]pyridin-2-yl}-2-methylpiperidin-1-yl]methyl}-1-(2-methoxyethyl)-1H-benzimidazole-6-carboxylic acid]
EC50 [1]: 1400 nM
Assay 2 Emax (%) [1, 3]: 83%
EC50 ([2]; Assay 1 EC50 (nM)): 46 nM
Assay 1 Emax (%) ([2]; CHO GLP-1R Clone H6, relative to saturating concentration of full agonist GLP-1 (1 μM), arithmetic mean): 66%

Cn1c(CN2CCC(c3cccc(OCc4ccc(Cl)cc4F)n3)CC2)nc2ncc(C(=O)O)cc21 [Example 2A-04, 2-[(4-{6-[(4-chloro-2-fluorobenzyl)oxy]pyridin-2-yl}piperidin-1-yl)methyl]-1-methyl-1H-imidazo[4,5-b]pyridine-6-carboxylic acid]
EC50 [1]: 150 nM
Emax [1, 3]: 92%
EC50 ([2]; read-out: Assay 1 EC50): 36 nM
Emax [2, 4]: 84%

N#Cc1ccc(COc2nc(C3CCN(Cc4nc5ccc(C(=O)O)cc5n4C[C@@H]4CCO4)CC3)ccc2F)cc1 [Example 10A-55, 2-[(4-{6-[(4-cyanobenzyl)oxy]-5-fluoropyridin-2-yl}piperidin-1-yl)methyl]-1-[(2S)-oxetan-2-ylmethyl]-1H-benzimidazole-6-carboxylic acid]
EC50 [1]: 24 nM
Emax [1, 3]: 98%
EC50 ([2]; read-out: Assay 1 EC50): 1.2 nM
Emax [2, 4]: 84%

O=C(O)c1ccc2nc(CN3CCC(c4cccc(OCc5ccc(F)cc5F)n4)CC3)n(C[C@@H]3CCO3)c2c1 [Example 10A-05, 2-[(4-{6-[(2,4-difluorobenzyl)oxy]pyridin-2-yl}piperidin-1-yl)methyl]-1-[(2S)-oxetan-2-ylmethyl]-1H-benzimidazole-6-carboxylic acid]
EC50 [1]: 38 nM
Emax [1, 3]: 83%
EC50 ([2]; read-out: Assay 1 EC50): 2.4 nM
Emax [2, 4]: 71%
